Measurements as given in patent US12415794B2 (Edgewise Therapeutics, Inc., priority 2018, dated 2025).

What was measured:
[1] = target: skeletal myofibrils (myosin ATPase); assay: Skeletal Myofibril ATPase Assay; type: biochemical
Method in brief: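 Rates of NADH loss (A340, kinetic read over 45 min) report ADP generation by myofibrillar myosin, coupled through pyruvate kinase and lactate dehydrogenase; pCa buffer at pH 7.0. IC50 fitted by 4-parameter logistic after normalizing to 1% DMSO controls; cardiac myofibrils served for selectivity.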

[2] = target: T1, cardiac myofibrils (myosin ATPase); assay: Cardiac Myofibril ATPase Assay (counter screen); type: biochemical; details: myofibrils 1.0 mg/mL, KCl omitted
T1 construct: frozen myofibril pellets obtained from cardiac tissue; from tissue
Method in brief: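 Myosin ATPase rate followed via NADH disappearance at 340 nm, coupled through pyruvate kinase and lactate dehydrogenase, using cardiac myofibril pellets (final 1.0 mg/mL) without KCl. IC50 values reflect rate reduction compared with vehicle-treated wells.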

T1 sequence (P12883 whole entry): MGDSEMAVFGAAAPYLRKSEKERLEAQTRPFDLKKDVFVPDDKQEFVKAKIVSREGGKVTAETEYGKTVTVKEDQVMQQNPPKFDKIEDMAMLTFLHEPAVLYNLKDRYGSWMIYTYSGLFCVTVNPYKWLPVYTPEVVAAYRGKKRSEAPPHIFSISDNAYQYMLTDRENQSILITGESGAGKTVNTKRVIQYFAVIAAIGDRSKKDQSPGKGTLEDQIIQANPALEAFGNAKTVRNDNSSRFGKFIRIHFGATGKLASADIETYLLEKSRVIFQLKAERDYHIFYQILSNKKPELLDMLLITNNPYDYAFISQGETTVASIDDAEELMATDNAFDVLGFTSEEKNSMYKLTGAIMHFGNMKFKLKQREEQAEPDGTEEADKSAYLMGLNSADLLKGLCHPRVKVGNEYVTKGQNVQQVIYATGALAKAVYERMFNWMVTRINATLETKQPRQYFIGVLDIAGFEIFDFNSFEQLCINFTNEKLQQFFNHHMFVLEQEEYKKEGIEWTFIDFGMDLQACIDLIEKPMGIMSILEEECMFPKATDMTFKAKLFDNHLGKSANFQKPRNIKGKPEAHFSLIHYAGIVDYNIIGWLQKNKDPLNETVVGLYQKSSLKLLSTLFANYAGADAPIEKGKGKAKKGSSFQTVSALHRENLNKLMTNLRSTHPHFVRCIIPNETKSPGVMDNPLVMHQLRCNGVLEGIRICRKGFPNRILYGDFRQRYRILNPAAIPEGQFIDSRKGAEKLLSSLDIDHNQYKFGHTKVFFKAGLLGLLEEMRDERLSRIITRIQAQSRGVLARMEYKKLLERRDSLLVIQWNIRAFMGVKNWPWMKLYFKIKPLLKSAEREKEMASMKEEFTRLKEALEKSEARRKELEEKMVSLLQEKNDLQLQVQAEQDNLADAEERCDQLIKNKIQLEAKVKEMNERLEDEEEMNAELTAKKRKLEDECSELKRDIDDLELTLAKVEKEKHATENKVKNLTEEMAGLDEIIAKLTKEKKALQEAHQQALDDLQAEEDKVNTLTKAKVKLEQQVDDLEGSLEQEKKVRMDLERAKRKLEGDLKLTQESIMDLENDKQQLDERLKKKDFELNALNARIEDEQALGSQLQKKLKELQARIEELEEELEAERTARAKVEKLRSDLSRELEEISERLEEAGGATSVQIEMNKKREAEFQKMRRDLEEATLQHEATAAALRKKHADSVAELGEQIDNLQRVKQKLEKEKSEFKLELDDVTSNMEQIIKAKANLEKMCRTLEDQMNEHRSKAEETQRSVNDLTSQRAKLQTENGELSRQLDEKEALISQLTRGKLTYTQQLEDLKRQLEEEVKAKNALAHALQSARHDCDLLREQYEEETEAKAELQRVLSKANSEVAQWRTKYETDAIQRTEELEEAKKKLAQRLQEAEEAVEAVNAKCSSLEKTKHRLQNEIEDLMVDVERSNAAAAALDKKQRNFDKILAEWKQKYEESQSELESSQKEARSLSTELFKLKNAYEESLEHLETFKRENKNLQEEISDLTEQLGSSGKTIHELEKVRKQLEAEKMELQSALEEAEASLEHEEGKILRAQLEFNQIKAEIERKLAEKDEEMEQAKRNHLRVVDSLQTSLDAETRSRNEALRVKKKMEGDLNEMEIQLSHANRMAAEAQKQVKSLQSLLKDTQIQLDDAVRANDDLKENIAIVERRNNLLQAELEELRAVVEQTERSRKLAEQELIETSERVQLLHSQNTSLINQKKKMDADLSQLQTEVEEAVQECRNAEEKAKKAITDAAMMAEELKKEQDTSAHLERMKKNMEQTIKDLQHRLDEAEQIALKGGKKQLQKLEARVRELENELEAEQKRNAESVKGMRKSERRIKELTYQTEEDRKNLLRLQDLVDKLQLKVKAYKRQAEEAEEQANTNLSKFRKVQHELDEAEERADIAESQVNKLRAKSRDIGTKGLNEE
T1 sequence (P08590 whole entry partner): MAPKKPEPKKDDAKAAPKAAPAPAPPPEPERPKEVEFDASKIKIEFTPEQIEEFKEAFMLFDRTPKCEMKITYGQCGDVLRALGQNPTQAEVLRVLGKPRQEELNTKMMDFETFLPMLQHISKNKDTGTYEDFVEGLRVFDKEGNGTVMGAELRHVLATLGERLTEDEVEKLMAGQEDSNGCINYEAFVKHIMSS
T1 sequence (P10916 whole entry partner): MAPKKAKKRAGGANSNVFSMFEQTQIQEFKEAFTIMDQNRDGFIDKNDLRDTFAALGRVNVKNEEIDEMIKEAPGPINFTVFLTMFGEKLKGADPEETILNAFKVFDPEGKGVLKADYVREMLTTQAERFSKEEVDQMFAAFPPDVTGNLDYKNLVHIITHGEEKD

Molecule	IC50 ([1]; Table 4C)	IC50 ([2]; Table 5C)	IC50 ([1]; Table 4A)	IC50 ([2]; Table 5A)
COc1ccc(-c2ccc(=O)n(CC(=O)NC3CCCCC3)n2)c(F)c1 [IIIb-60, N-cyclohexyl-2-(3-(2-fluoro-4-methoxyphenyl)-6-oxopyridazin-1(6H)-yl)acetamide]	> 100 µM	> 100 µM		
CCc1cccc(NC(=O)Cn2nc(-c3ccc(C)cc3)ccc2=O)c1 [IIIc-1, N-(3-ethylphenyl)-2-(6-oxo-3-(p-tolyl)pyridazin-1(6H)-yl)acetamide]	< 10 µM	> 100 µM		
CC[C@H](C)NC(=O)Cn1nc(-c2ccc(C)cc2)ccc1=O [IIIc-2, (S)-N-(sec-butyl)-2-(6-oxo-3-(p-tolyl)pyridazin-1(6H)-yl)acetamide]	< 10 µM	> 100 µM		
Cc1ccc(-c2ccc(=O)n(CC(=O)NCCc3ccccc3)n2)cc1 [IIIc-3, 2-(6-oxo-3-(p-tolyl)pyridazin-1(6H)-yl)-N-phenethylacetamide]	< 10 µM	> 100 µM		
Cc1ccc(-c2ccc(=O)n(CC(=O)NC3CCCC3)n2)cc1 [IIIc-5, N-cyclopentyl-2-(6-oxo-3-(p-tolyl)pyridazin-1(6H)-yl)acetamide]	10 to 100 µM	> 100 µM		
Cn1ccc2c(NC(=O)Cn3nc(-c4ccc(F)cc4)ccc3=O)cccc21 [IIIc-16, 2-(3-(4-fluorophenyl)-6-oxopyridazin-1(6H)-yl)-N-(1-methyl-1H-indol-4-yl)acetamide]	< 10 µM	> 100 µM		
O=C(Cn1nc(-c2ccc(Cl)cc2)ccc1=O)Nc1ccccc1F [IIIc-27, 2-(3-(4-chlorophenyl)-6-oxopyridazin-1(6H)-yl)-N-(2-fluorophenyl)acetamide]	10 to 100 µM	> 100 µM		
O=C(Cn1nc(-c2ccc(Cl)cc2)ccc1=O)Nc1ccccc1Cl [IIIc-28, N-(2-chlorophenyl)-2-(3-(4-chlorophenyl)-6-oxopyridazin-1(6H)-yl)acetamide]	< 10 µM	10 to 100 µM		
COc1ccc(NC(=O)Cn2nc(-c3ccc(F)cc3)ccc2=O)c(OC)c1 [IIIc-31, N-(2,4-dimethoxyphenyl)-2-(3-(4-fluorophenyl)-6-oxopyridazin-1(6H)-yl)acetamide]	10 to 100 µM	> 100 µM		
CN(Cc1ccccc1)C(=O)Cn1nc(-c2ccc(Cl)cc2)ccc1=O [IIIc-32, N-benzyl-2-(3-(4-chlorophenyl)-6-oxopyridazin-1(6H)-yl)-N-methylacetamide]	10 to 100 µM	> 100 µM		
CC(C)OCCCNC(=O)Cn1nc(-c2ccc(Cl)cc2)ccc1=O [IIIc-33, 2-(3-(4-chlorophenyl)-6-oxopyridazin-1(6H)-yl)-N-(3-isopropoxypropyl)acetamide]	10 to 100 µM	> 100 µM		
O=C(Cn1nc(-c2ccc(Cl)cc2)ccc1=O)Nc1ccccc1Cl [IIIc-38, N-(2-chlorophenyl)-2-(3-(4-chlorophenyl)-6-oxopyridazin-1(6H)-yl)acetamide]	< 10 µM	> 100 µM		
CC(C)NC(=O)Cn1nc(-c2ccc(Br)cc2)ccc1=O [IIIc-40, 2-(3-(4-bromophenyl)-6-oxopyridazin-1(6H)-yl)-N-isopropylacetamide]	10 to 100 µM	> 100 µM		
O=C(Cn1nc(-c2ccc(F)cc2)ccc1=O)NCCc1c[nH]c2ccccc12 [IIIc-44, N-(2-(1H-indol-3-yl)ethyl)-2-(3-(4-fluorophenyl)-6-oxopyridazin-1(6H)-yl)acetamide]	10 to 100 µM	> 100 µM		
O=C(Cn1nc(-c2ccccc2)ccc1=O)NCCC1=CCCCC1 [IIIc-48, N-(2-(cyclohex-1-en-1-yl)ethyl)-2-(6-oxo-3-phenylpyridazin-1(6H)-yl)acetamide]	< 10 µM	> 100 µM		
O=C(Cn1nc(-c2ccccc2)ccc1=O)Nc1ccc2[nH]ccc2c1 [IIIc-49, N-(1H-indol-5-yl)-2-(6-oxo-3-phenylpyridazin-1(6H)-yl)acetamide]	< 10 µM	> 100 µM		
O=C(Cn1nc(-c2ccccc2)ccc1=O)Nc1cccc2[nH]ccc12 [IIIc-50, N-(1H-indol-4-yl)-2-(6-oxo-3-phenylpyridazin-1(6H)-yl)acetamide]	10 to 100 µM	> 100 µM		
O=C(Cn1nc(-c2ccccc2)ccc1=O)NC1(c2ccccc2)CCC1 [IIIc-51, 2-(6-oxo-3-phenylpyridazin-1(6H)-yl)-N-(1-phenylcyclobutyl)acetamide]	< 10 µM	> 100 µM		
O=C(Cn1nc(-c2ccccc2)ccc1=O)Nc1ccccc1C(F)(F)F [IIIc-52, 2-(6-oxo-3-phenylpyridazin-1(6H)-yl)-N-(2-(trifluoromethyl)phenyl)acetamide]	10 to 100 µM	> 100 µM		
CC(CCNC(=O)Cn1nc(-c2ccccc2)ccc1=O)c1ccccc1 (stereo not shown) [IIIc-53, 2-(6-oxo-3-phenylpyridazin-1(6H)-yl)-N-(3-phenylbutyl)acetamide]	10 to 100 µM	> 100 µM		
O=C(Cn1nc(-c2ccccc2)ccc1=O)Nc1ccc(Cl)cc1Cl [IIIc-54, N-(2,4-dichlorophenyl)-2-(6-oxo-3-phenylpyridazin-1(6H)-yl)acetamide]	10 to 100 µM	> 100 µM		
CCC1CCC(CNC(=O)Cn2nc(-c3ccccc3)ccc2=O)CC1 (stereo not shown) [IIIc-55, N-((4-ethylcyclohexyl)methyl)-2-(6-oxo-3-phenylpyridazin-1(6H)-yl)acetamide]	10 to 100 µM	> 100 µM		
COc1ccccc1NC(=O)Cn1nc(-c2ccccc2)ccc1=O [IIIc-58, N-(2-methoxyphenyl)-2-(6-oxo-3-phenylpyridazin-1(6H)-yl)acetamide]	10 to 100 µM	> 100 µM		
CC(C)NC(=O)Cn1nc(-c2ccccc2)ccc1=O [IIIc-63, N-isopropyl-2-(6-oxo-3-phenylpyridazin-1(6H)-yl)acetamide]	> 100 µM	> 100 µM		
O=C(Cn1nc(-c2ccccc2)ccc1=O)NC1CC1 [IIIc-65, N-cyclopropyl-2-(6-oxo-3-phenylpyridazin-1(6H)-yl)acetamide]	> 100 µM	> 100 µM		

The next lines start with the values.

IC50 ([1]; Table 4C)	IC50 ([2]; Table 5C)	IC50 ([1]; Table 4A)	IC50 ([2]; Table 5A)	Molecule
10 to 100 µM	> 100 µM			Cc1ccc(-c2ccc(=O)n(CC(=O)NC3CCCCCC3)n2)cc1 [IIIc-4, N-cycloheptyl-2-(6-oxo-3-(p-tolyl)pyridazin-1(6H)-yl)acetamide]
10 to 100 µM	> 100 µM			Cc1ccc(-c2ccc(=O)n(CC(=O)NC3CCCCC3)n2)cc1 [IIIc-6, N-cyclohexyl-2-(6-oxo-3-(p-tolyl)pyridazin-1(6H)-yl)acetamide]
10 to 100 µM	> 100 µM			COc1ccc(-c2ccc(=O)n(CC(=O)N(C)c3ccccc3)n2)cc1 [IIIc-7, 2-(3-(4-methoxyphenyl)-6-oxopyridazin-1(6H)-yl)-N-methyl-N-phenylacetamide]
< 10 µM	> 100 µM			O=C(Cn1nc(-c2ccc(Cl)cc2)ccc1=O)Nc1cccc2[nH]ccc12 [IIIc-19, 2-(3-(4-chlorophenyl)-6-oxopyridazin-1(6H)-yl)-N-(1H-indol-4-yl)acetamide]
< 10 µM	10 to 100 µM			Cn1ccc2c(NC(=O)Cn3nc(-c4ccc(Cl)cc4)ccc3=O)cccc21 [IIIc-20, 2-(3-(4-chlorophenyl)-6-oxopyridazin-1(6H)-yl)-N-(1-methyl-1H-indol-4-yl)acetamide]
< 10 µM	> 100 µM			O=C(Cn1nc(-c2ccc(Cl)cc2)ccc1=O)Nc1ccc2[nH]ccc2c1 [IIIc-22, 2-(3-(4-chlorophenyl)-6-oxopyridazin-1(6H)-yl)-N-(1H-indol-5-yl)acetamide]
< 10 µM	> 100 µM			COc1ccccc1NC(=O)Cn1nc(-c2ccc(Cl)cc2)ccc1=O [IIIc-23, 2-(3-(4-chlorophenyl)-6-oxopyridazin-1(6H)-yl)-N-(2-methoxyphenyl)acetamide]
10 to 100 µM	> 100 µM			CC[C@H](C)NC(=O)Cn1nc(-c2ccc(Cl)cc2)ccc1=O [IIIc-30, (S)-N-(sec-butyl)-2-(3-(4-chlorophenyl)-6-oxopyridazin-1(6H)-yl)acetamide]
10 to 100 µM	> 100 µM			CC(C)CNC(=O)Cn1nc(-c2ccc(Cl)cc2)ccc1=O [IIIc-35, 2-(3-(4-chlorophenyl)-6-oxopyridazin-1(6H)-yl)-N-isobutylacetamide]
10 to 100 µM	> 100 µM			O=C(Cn1nc(-c2ccccc2)ccc1=O)NCc1ccccc1Cl [IIIc-47, N-(2-chlorobenzyl)-2-(6-oxo-3-phenylpyridazin-1(6H)-yl)acetamide]
10 to 100 µM	> 100 µM			O=C(Cn1nc(-c2ccccc2)ccc1=O)Nc1ccccc1Cl [IIIc-56, N-(2-chlorophenyl)-2-(6-oxo-3-phenylpyridazin-1(6H)-yl)acetamide]
10 to 100 µM	> 100 µM			CC[C@H](C)NC(=O)Cn1nc(-c2ccccc2)ccc1=O [IIIc-57, (S)-N-(sec-butyl)-2-(6-oxo-3-phenylpyridazin-1(6H)-yl)acetamide]
> 100 µM	> 100 µM			COc1ccc(Cl)cc1NC(=O)Cn1nc(-c2ccccc2)ccc1=O [IIIc-62, N-(5-chloro-2-methoxyphenyl)-2-(6-oxo-3-phenylpyridazin-1(6H)-yl)acetamide]
> 100 µM	> 100 µM			O=C(Cn1nc(-c2ccccc2)ccc1=O)Nc1ccc2c(c1)OCCO2 [IIIc-64, N-(2,3-dihydrobenzo[b][1,4]dioxin-6-yl)-2-(6-oxo-3-phenylpyridazin-1(6H)-yl)acetamide]
> 100 µM	> 100 µM			O=C(Cn1nc(-c2ccccc2)ccc1=O)Nc1ccccc1F [IIIc-66, N-(2-fluorophenyl)-2-(6-oxo-3-phenylpyridazin-1(6H)-yl)acetamide]
		> 100 µM	> 100 µM	N-cyclobutyl-2-[3-[2-(2-methylpropoxy)pyrimidin-5-yl]-6-oxopyridazin-1-yl]acetamide [Compound I-79]
